Where two headings read alike, the source gives them in different places.
What was measured:
[1] = tested on: guinea pig bronchioles constricted by carbachol; experiment: Bronchodilator Test Method II, in vitro perfused guinea pig lung
Method: In this method bronchodilator activity in vitro was determined by testing the effect of graded doses of the test compounds on guinea pig bronchioles constricted by carbachol, using the technique reported by Sollman and von Oettingen, Proc. Soc, Exp. Biol. Med., 25,692 (1928) as modified by Tainter, Pedden, and James, J. Pharm. Exp. Ther., 51, 371 (1934) and by Luduena, von Euler, Tullar, and Lands, Arch. intern. Pharmacol., III, 392 (1957).

[2] = tested on: carbachol- or histamine-induced bronchoconstriction; experiment: Bronchodilator Test Method I, anesthetized dog, intraduodenal activity; type: in vivo; details: Canis lupus familiaris, read-out: Bronchodilation; for inhibition in vivo at 0.02 mg/kg: 20 mcg/kg (salt) intraduodenal; for inhibition in vivo at 0.08 mg/kg: 80 mcg/kg (salt) intraduodenal; for inhibition in vivo at 0.16 mg/kg: 160 mcg/kg (salt) intraduodenal; for inhibition in vivo at 0.03 mg/kg: 30 mcg/kg (salt) intraduodenal; for inhibition in vivo at 0.12 mg/kg: 120 mcg/kg (salt) intraduodenal
Method in brief: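 Pentobarbital-anesthetized (30 mg/kg i.v.) open-chest dogs of 9-18 kg, artificially ventilated; airway pressure recorded via tracheal cannula transducer. Test solution injected intraduodenally; from 5 min, i.v. carbachol (4-6 μg/kg) or histamine diphosphate (35-45 μg/kg) challenges every 30-60 min gauged degree and duration of bronchodilation.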

heart rate = experiment: Cardiovascular studies: effect on the heart rate in the anesthetized dog; type: in vivo
Method: (§1) The effect of a rapid intravenous injection on the heart rate the heart rate was conducted in anesthetized dogs under normal respiration. A few open-chest dogs were also tested. Increase in heart rate was measured by using an electrocardiograph attached to the dog. Readings were taken every 0.5-1 minute for the first 10 minutes and every 2-5 minutes thereafter until recovery. In some cases, several doses and more than one compound were tested alternately in the same dog. The blood pressure effect was simultaneously recorded.

[3] = tested on: carbachol- or histamine-induced bronchoconstriction; experiment: Bronchodilator Test Method I, anesthetized dog, intravenous activity; type: in vivo; details: Canis lupus familiaris, read-out: Bronchodilatation; for inhibition in vivo at 0.005 mg/kg: 5 mcg/kg i.v.; for inhibition in vivo at 0.02 mg/kg: 20 mcg/kg i.v.; for inhibition in vivo at 0.04 mg/kg: 40 mcg/kg i.v.
Method in brief: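 Pentobarbital-anesthetized (30 mg/kg i.v.), open-chest, artificially ventilated dogs were given i.v. carbachol (4-6 µg/kg) or histamine diphosphate (35-45 µg/kg). Test compound was given i.v. mixed with, after, or 1-10 min before the constrictor.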

diastolic blood pressure = experiment: Effect on diastolic blood pressure in the anesthetized dog; type: in vivo
Method: as §1

## COc1ccc(C(=O)Oc2ccc(C(O)CNC(C)(C)C)cc2OC(C)=O)cc1 (stereo not drawn) [Example 145, 3-acetoxy-4-(p-anisoyloxy)-alpha-(tert-butylaminomethyl)benzyl alcohol methanesulfonate]
[1]; carbachol (Doryl) 1:5 million
  ED50: 0.25 µg (base)
[1]; dose 1 mcg (base)
  Duration, Mean: > 72 min
[2]; 5 min, 5 min
  inhibition in vivo at 0.02 mg/kg: 33%
  inhibition in vivo at 0.08 mg/kg: 53%
  inhibition in vivo at 0.16 mg/kg: 82%
[2]; 0.5 h, 30 min
  inhibition in vivo at 0.02 mg/kg: 32%
  inhibition in vivo at 0.08 mg/kg: 48%
  inhibition in vivo at 0.16 mg/kg: 81%
[2]; 1 h, 60 min
  inhibition in vivo at 0.02 mg/kg: 32%
  inhibition in vivo at 0.08 mg/kg: 45%
  inhibition in vivo at 0.16 mg/kg: 81%
[2]; 2 h, 120 min
  inhibition in vivo at 0.02 mg/kg: 33%
  inhibition in vivo at 0.08 mg/kg: 49%
  inhibition in vivo at 0.16 mg/kg: 63%
[2]; 3 h, 180 min
  inhibition in vivo at 0.02 mg/kg: 29%
  inhibition in vivo at 0.08 mg/kg: 32%
  inhibition in vivo at 0.16 mg/kg: 48%
[2]; 4 h, 240 min
  inhibition in vivo at 0.02 mg/kg: 25%
  inhibition in vivo at 0.08 mg/kg: 30%
  inhibition in vivo at 0.16 mg/kg: 32%
[2]; 5 h, 300 min
  inhibition in vivo at 0.02 mg/kg: 23%
  inhibition in vivo at 0.16 mg/kg: 37%
Heart rate; 1.25 mcg/kg (salt) i.v.
  Mean Maximal Increase in the Heart Rate: 9%
Heart rate; 5.0 mcg/kg (salt) i.v.
  Mean Maximal Increase in the Heart Rate: 13%
Heart rate; 20 mcg/kg (salt) i.v.
  Mean Maximal Increase in the Heart Rate: 27%
[3]; 5 min, 5 min
  inhibition in vivo at 0.005 mg/kg: 65%
  inhibition in vivo at 0.02 mg/kg: 87%
  inhibition in vivo at 0.04 mg/kg: 98%
[3]; 0.5 h, 30 min
  inhibition in vivo at 0.005 mg/kg: 30%
  inhibition in vivo at 0.02 mg/kg: 45%
  inhibition in vivo at 0.04 mg/kg: 70%
[3]; 1 h, 60 min
  inhibition in vivo at 0.005 mg/kg: 24%
  inhibition in vivo at 0.02 mg/kg: 35%
  inhibition in vivo at 0.04 mg/kg: 68%
[3]; 2 h, 120 min
  inhibition in vivo at 0.005 mg/kg: 22%
  inhibition in vivo at 0.02 mg/kg: 27%
  inhibition in vivo at 0.04 mg/kg: 42%
[3]; 3 h, 180 min
  inhibition in vivo at 0.04 mg/kg: 38%
[3]; 4 h, 240 min
  inhibition in vivo at 0.04 mg/kg: 24%
Diastolic blood pressure; 1.25 meg/kg (salt) i.v.
  Mean Decrease in Diastolic Blood Pressure: 7%
Diastolic blood pressure; 5.0 meg/kg (salt) i.v.
  Mean Decrease in Diastolic Blood Pressure: 12%
Diastolic blood pressure; 20 meg/kg (salt) i.v.
  Mean Decrease in Diastolic Blood Pressure: 20%

## CC(C)NCC(O)c1ccc(O)c(O)c1 (stereo not drawn) [Ref. Cpd. II, 3,4-Dihydroxy-alpha-(isopropylaminomethyl)benzyl alcohol, reference compound]
[1]; dose 0.75 mcg (base)
  Duration, Mean: 5 min
[2]; 10 min, 10 min
  inhibition in vivo at 0.03 mg/kg: 9%
  inhibition in vivo at 0.12 mg/kg: 28%
[2]; 0.5 h, 30 min
  inhibition in vivo at 0.03 mg/kg: 5%
  inhibition in vivo at 0.12 mg/kg: 5%
[2]; 1 h, 60 min
  inhibition in vivo at 0.03 mg/kg: 0%
  inhibition in vivo at 0.12 mg/kg: 19%
Heart rate; 0.15 mcg/kg (salt) i.v.
  Mean Maximal Increase in the Heart Rate: 26%
Heart rate; 0.3 mcg/kg (salt) i.v.
  Mean Maximal Increase in the Heart Rate: 35%
Heart rate; 0.6 mcg/kg (salt) i.v.
  Mean Maximal Increase in the Heart Rate: 50%
[3]; 1 min, 0.3 mcg/kg i.v., 1-2 min
  inhibition in vivo at 0.0003 mg/kg: 23%
[3]; 1 min, 0.6 mcg/kg i.v., 1-2 min
  inhibition in vivo at 0.0006 mg/kg: 35%
[3]; 1 min, 1.2 mcg/kg i.v., 1-2 min
  inhibition in vivo at 0.0012 mg/kg: 55%
Diastolic blood pressure; 0.15 meg/kg (salt) i.v.
  Mean Decrease in Diastolic Blood Pressure: 12%
Diastolic blood pressure; 0.3 meg/kg (salt) i.v.
  Mean Decrease in Diastolic Blood Pressure: 32%
Diastolic blood pressure; 0.6 meg/kg (salt) i.v.
  Mean Decrease in Diastolic Blood Pressure: 40%
